According to patent US20090068276A1, “Pharmaceutical compositions” (Vectura Group plc, priority 2007, published 2009):

Test: Involuntary cough on administration of the active agent
Assay type: in vivo

CN(C)CCCN1c2ccccc2CCc2ccc(Cl)cc21 [clomipramine]
cough (administered via an alternative route to pulmonary inhalation): the cough is not induced
involuntary cough (administered via pulmonary inhalation): induces an involuntary cough
